Source: ChEMBL document CHEMBL3867425, “Synthesis and cytotoxicity evaluation of aryl triazolic derivatives and their hydroxymethine homologues against B16 melanoma cell line” (Eur J Med Chem, 2016)

Assay: Cytotoxicity against mouse B16 cells assessed as decrease in cell viability after 48 hrs by MTT assay
Format: functional, cell-based
Conditions: B16, 48 h
With `COc1ccc(Cn2cc(-c3ccc(OC)cc3)nn2)cc1` the IC50 was over 100 µM.
Compound `Cc1ccc(C(O)c2cn(Cc3ccccc3)nn2)cc1` (stereo unspecified) has an IC50 of over 100 µM.
Compound `COc1ccc(-c2cn(C[C@H]3COC(C)(C)O3)nn2)cc1` has an IC50 of over 100 µM.
Work on `COc1ccc(C(O)c2cn(C[C@H]3COC(C)(C)O3)nn2)cc1` (stereo partly specified) yielded an IC50 of over 100 µM.
Compound `CCOC(=O)Cn1cc(C(O)c2ccc3ccccc3c2)nn1` (stereo unspecified) has an IC50 of over 100 µM.
Compound `COc1ccc(Cn2cc(C(O)c3ccc(OC)c(OC)c3OC)nn2)cc1` (stereo unspecified) has an IC50 of over 100 µM.
`COc1ccc(Cn2cc(-c3ccc([N+](=O)[O-])cc3)nn2)cc1` gave an IC50 of 19.1 µM.
With `CC1(C)OC[C@H](Cn2cc(-c3ccc(C(F)(F)F)cc3)nn2)O1` the IC50 was over 100 µM.
`COc1ccc(Cn2cc(-c3ccc(C(F)(F)F)cc3)nn2)cc1` showed an IC50 of 17.4 µM.
Compound `COc1ccc(Cn2cc(-c3ccc4ccccc4c3)nn2)cc1` has an IC50 of over 100 µM.
Compound `CCOC(=O)Cn1cc(-c2ccc([N+](=O)[O-])cc2)nn1` has an IC50 of over 100 µM.
`COc1ccc(-c2cn(C[C@H]3COC(C)(C)O3)nn2)c(OC)c1OC` showed an IC50 of over 100 µM.
With `O=[N+]([O-])c1ccc(-c2cn(Cc3ccccc3)nn2)cc1` the IC50 was 5.12 µM.
`COc1ccc(Cn2cc(-c3ccc(C)cc3)nn2)cc1` showed an IC50 of 19.5 µM.
With `COc1ccc(C(O)c2cn(C[C@H]3COC(C)(C)O3)nn2)c(OC)c1OC` (stereo partly specified) the IC50 was over 100 µM.
With `CC1(C)OC[C@H](Cn2cc(-c3ccc4ccccc4c3)nn2)O1` the IC50 was 12 µM.
`COc1ccc(-c2cn(CCO)nn2)cc1` gave an IC50 of over 100 µM.
With `CC1(C)OC[C@H](Cn2cc(C(O)c3ccc([N+](=O)[O-])cc3)nn2)O1` (stereo partly specified) the IC50 was over 100 µM.
Work on `COc1ccc(C(O)c2cn(CCO)nn2)c(OC)c1OC` (stereo unspecified) yielded an IC50 of over 100 µM.
Compound `Cc1ccc(-c2cn(C[C@H]3COC(C)(C)O3)nn2)cc1` has an IC50 of over 100 µM.
For `CC1(C)OC[C@H](Cn2cc(-c3ccc([N+](=O)[O-])cc3)nn2)O1`, the IC50 was over 100 µM.
`COc1ccc(Cn2cc(C(O)c3ccc(C)cc3)nn2)cc1` (stereo unspecified) showed an IC50 of over 100 µM.
In the case of `COc1ccc(Cn2cc(C(O)c3ccc(OC)cc3)nn2)cc1` (stereo unspecified), the IC50 is reported as over 100 µM.
For `COc1ccc(Cn2cc(C(O)c3ccc([N+](=O)[O-])cc3)nn2)cc1` (stereo unspecified), the IC50 was over 100 µM.
`COc1ccc(C(O)c2cn(CCO)nn2)cc1` (stereo unspecified) showed an IC50 of over 100 µM.
`CCOC(=O)Cn1cc(-c2ccc3ccccc3c2)nn1` gave an IC50 of over 100 µM.
Compound `Cc1ccc(C(O)c2cn(C[C@H]3COC(C)(C)O3)nn2)cc1` (stereo partly specified) has an IC50 of over 100 µM.
`COc1ccc(-c2cn(Cc3ccccc3)nn2)cc1` gave an IC50 of over 100 µM.
In the case of `OC(c1ccc(C(F)(F)F)cc1)c1cn(Cc2ccccc2)nn1` (stereo unspecified), the IC50 is reported as over 100 µM.
For `CCOC(=O)Cn1cc(-c2ccc(OC)c(OC)c2OC)nn1`, the IC50 was over 100 µM.
`OCCn1cc(-c2ccc(C(F)(F)F)cc2)nn1` gave an IC50 of over 100 µM.
Work on `COc1ccc(-c2cn(Cc3ccccc3)nn2)c(OC)c1OC` yielded an IC50 of 27.5 µM.
Work on `c1ccc(Cn2cc(-c3ccc4ccccc4c3)nn2)cc1` yielded an IC50 of 3.89 µM.
`COc1ccc(Cn2cc(-c3ccc(OC)c(OC)c3OC)nn2)cc1` showed an IC50 of over 100 µM.
With `Cc1ccc(-c2cn(CCO)nn2)cc1` the IC50 was over 100 µM.
With `OCCn1cc(-c2ccc3ccccc3c2)nn1` the IC50 was over 100 µM.
With `FC(F)(F)c1ccc(-c2cn(Cc3ccccc3)nn2)cc1` the IC50 was over 100 µM.
With `OC(c1ccc2ccccc2c1)c1cn(Cc2ccccc2)nn1` (stereo unspecified) the IC50 was 28.8 µM.
In the case of `Cc1ccc(-c2cn(Cc3ccccc3)nn2)cc1`, the IC50 is reported as over 100 µM.
For `CC1(C)OCC(Cn2cc(C(O)c3ccc(C(F)(F)F)cc3)nn2)O1` (racemic), the IC50 was over 100 µM.
Compound `CC1(C)OCC(Cn2cc(C(O)c3ccc4ccccc4c3)nn2)O1` (racemic) has an IC50 of 26.9 µM.
`Cc1ccc(-c2cn(CC3COC(C)(C)O3)nn2)cc1` (racemic) gave an IC50 of 41.7 µM.
With `CC1(C)OCC(Cn2cc(-c3ccc([N+](=O)[O-])cc3)nn2)O1` (racemic) the IC50 was over 100 µM.
`CC1(C)OCC(Cn2cc(-c3ccc4ccccc4c3)nn2)O1` (racemic) gave an IC50 of 6.6 µM.
In the case of `CC1(C)OCC(Cn2cc(-c3ccc(C(F)(F)F)cc3)nn2)O1` (racemic), the IC50 is reported as 13.5 µM.
Compound `Cc1ccc(C(O)c2cn(CC3COC(C)(C)O3)nn2)cc1` (racemic) has an IC50 of over 100 µM.
